Results taken from ChEMBL document CHEMBL3885861, “Open TG-GATES”.

Species on record: Rattus norvegicus
Assay: Open TG-GATES - Regimen: Single
Format: toxicity, organism-based, Sprague-Dawley
Parameters: regimen Single, gender Male, age 6 weeks
Details: in vivo, po, route gavage; for APTT / Bas / Eos / Fbg / Hb / Ht / Lym / MCH / MCHC / MCV / Mono / Neu / PT / Plat / RBC / Ret / WBC: tissue Blood; for KIDNEY_L / KIDNEY_R / KIDNEY_TOTAL: tissue Kidney; for LIVER: tissue Liver; for A/G / ALP / ALT / AST / BUN / CRE / Ca / Cl / DBIL / GLC / IP / K / LDH / Na / PL / RALB / TBIL / TC / TG / TP / gamma-GTP: tissue Plasma
[1] = 0 mg/kg, 3 h, dose level Control
[2] = 0 mg/kg, 6 h, dose level Control
[3] = 0 mg/kg, 9 h, dose level Control
[4] = 0 mg/kg, 24 h, dose level Control
[5] = 100 mg/kg, 24 h, dose level Low

## Cc1nnc2n1-c1ccc(Cl)cc1C(c1ccccc1Cl)=NC2 [TRIAZOLAM]
[1]
  TERMINAL_BW: 194.1 g
  APTT: 20.7 s
  Bas: 0%
  Eos: 0.8%
  Fbg: 266.4 mg/dL
  Hb: 13.6 g/dL
  Ht: 41.4%
  Lym: 76%
  MCH: 21.2 pg
  MCHC: 32.8%
  MCV: 64.7 fL
  Mono: 3%
  Neu: 19.2%
  PT: 13.6 s
  Plat: 126 x10_4/uL
  RBC: 640.6 x10_4/ul
  Ret: 9.3%
  WBC: 96.6 x10_2/uL
  KIDNEY_L: 0.8 g
  KIDNEY_R: 0.8 g
  KIDNEY_TOTAL: 1.6 g
  LIVER: 8.3 g
  A/G: 0.9
  ALP: 1477.8 IU/L
  ALT: 39.8 IU/L
  AST: 72.4 IU/L
  BUN: 10.6 mg/dL
  CRE: 0.2 mg/dL
  Ca: 11.3 mg/dL
  Cl: 105.6 meq/L
  DBIL: 0.012 mg/dL
  GLC: 179.2 mg/dL
  IP: 9.1 mg/dL
  K: 4.3 meq/L
  LDH: 100 IU/L
  Na: 140.8 meq/L
  PL: 150.2 mg/dL
  RALB: 2.5 g/dL
  TBIL: 0.062 mg/dL
  TC: 87.8 mg/dL
  TG: 47.6 mg/dL
  TP: 5.2 g/dL
  gamma-GTP: 1.2 IU/L
[2]
  TERMINAL_BW: 191.8 g
  APTT: 17.3 s
  Bas: 0%
  Eos: 0.8%
  Fbg: 258.8 mg/dL
  Hb: 13.6 g/dL
  Ht: 41.3%
  Lym: 81.4%
  MCH: 21.3 pg
  MCHC: 33%
  MCV: 64.7 fL
  Mono: 2.2%
  Neu: 15%
  PT: 13.5 s
  Plat: 133.4 x10_4/uL
  RBC: 639.4 x10_4/ul
  Ret: 8.5%
  WBC: 82 x10_2/uL
  KIDNEY_L: 0.9 g
  KIDNEY_R: 0.9 g
  KIDNEY_TOTAL: 1.7 g
  LIVER: 7.7 g
  A/G: 0.9
  ALP: 1476.8 IU/L
  ALT: 33.6 IU/L
  AST: 72 IU/L
  BUN: 7.8 mg/dL
  CRE: 0.2 mg/dL
  Ca: 10.7 mg/dL
  Cl: 106.8 meq/L
  DBIL: 0.01 mg/dL
  GLC: 177.8 mg/dL
  IP: 9.4 mg/dL
  K: 4.1 meq/L
  LDH: 104.2 IU/L
  Na: 141.8 meq/L
  PL: 138 mg/dL
  RALB: 2.5 g/dL
  TBIL: 0.068 mg/dL
  TC: 75.4 mg/dL
  TG: 51.6 mg/dL
  TP: 5.1 g/dL
  gamma-GTP: 1 IU/L
[3]
  TERMINAL_BW: 192.1 g
  APTT: 17.5 s
  Bas: 0%
  Eos: 0.6%
  Fbg: 271.8 mg/dL
  Hb: 13.2 g/dL
  Ht: 40.4%
  Lym: 77.4%
  MCH: 20.9 pg
  MCHC: 32.7%
  MCV: 64 fL
  Mono: 2%
  Neu: 19.4%
  PT: 13.7 s
  Plat: 112 x10_4/uL
  RBC: 631.8 x10_4/ul
  Ret: 8.8%
  WBC: 96.7 x10_2/uL
  KIDNEY_L: 0.9 g
  KIDNEY_R: 0.9 g
  KIDNEY_TOTAL: 1.7 g
  LIVER: 7.6 g
  A/G: 0.9
  ALP: 1320.2 IU/L
  ALT: 40.6 IU/L
  AST: 75 IU/L
  BUN: 9.2 mg/dL
  CRE: 0.2 mg/dL
  Ca: 10.6 mg/dL
  Cl: 106 meq/L
  DBIL: 0.008 mg/dL
  GLC: 188.4 mg/dL
  IP: 10.4 mg/dL
  K: 4.1 meq/L
  LDH: 79.8 IU/L
  Na: 141.6 meq/L
  PL: 132.4 mg/dL
  RALB: 2.4 g/dL
  TBIL: 0.062 mg/dL
  TC: 71.8 mg/dL
  TG: 40.8 mg/dL
  TP: 5.1 g/dL
  gamma-GTP: 1.2 IU/L
[4]
  TERMINAL_BW: 207 g
  APTT: 20.6 s
  Bas: 0%
  Eos: 1%
  Fbg: 279.8 mg/dL
  Hb: 13.2 g/dL
  Ht: 40.3%
  Lym: 78%
  MCH: 21.1 pg
  MCHC: 32.9%
  MCV: 64.1 fL
  Mono: 3%
  Neu: 16.6%
  PT: 13.1 s
  Plat: 116.7 x10_4/uL
  RBC: 628.2 x10_4/ul
  Ret: 8.3%
  WBC: 87 x10_2/uL
  KIDNEY_L: 0.9 g
  KIDNEY_R: 0.9 g
  KIDNEY_TOTAL: 1.8 g
  LIVER: 9.5 g
  A/G: 0.9
  ALP: 1736 IU/L
  ALT: 50 IU/L
  AST: 79.4 IU/L
  BUN: 13.6 mg/dL
  CRE: 0.2 mg/dL
  Ca: 11 mg/dL
  Cl: 105.2 meq/L
  DBIL: 0.01 mg/dL
  GLC: 178.4 mg/dL
  IP: 8.3 mg/dL
  K: 4.2 meq/L
  LDH: 109.8 IU/L
  Na: 141.2 meq/L
  PL: 145.8 mg/dL
  RALB: 2.5 g/dL
  TBIL: 0.054 mg/dL
  TC: 77.4 mg/dL
  TG: 80.8 mg/dL
  TP: 5.3 g/dL
  gamma-GTP: 1 IU/L
100 mg/kg, 3 h, dose level Low
  TERMINAL_BW: 192 g
  APTT: 17.6 s
  Bas: 0%
  Eos: 1%
  Fbg: 279.8 mg/dL
  Hb: 13.9 g/dL
  Ht: 42.1%
  Lym: 75%
  MCH: 21 pg
  MCHC: 33%
  MCV: 63.8 fL
  Mono: 3%
  Neu: 20.4%
  PT: 13.5 s
  Plat: 121.2 x10_4/uL
  RBC: 661.2 x10_4/ul
  Ret: 9.1%
  WBC: 73.1 x10_2/uL
  KIDNEY_L: 0.9 g
  KIDNEY_R: 0.8 g
  KIDNEY_TOTAL: 1.7 g
  LIVER: 8 g
  A/G: 0.9
  ALP: 1479.6 IU/L
  ALT: 40.8 IU/L
  AST: 75.4 IU/L
  BUN: 9.4 mg/dL
  CRE: 0.2 mg/dL
  Ca: 11 mg/dL
  Cl: 104.2 meq/L
  DBIL: 0.008 mg/dL
  GLC: 176.4 mg/dL
  IP: 10.2 mg/dL
  K: 4.3 meq/L
  LDH: 80.4 IU/L
  Na: 141.4 meq/L
  PL: 144.4 mg/dL
  RALB: 2.4 g/dL
  TBIL: 0.062 mg/dL
  TC: 75.8 mg/dL
  TG: 40.6 mg/dL
  TP: 5.1 g/dL
  gamma-GTP: 1.4 IU/L
100 mg/kg, 6 h, dose level Low
  TERMINAL_BW: 189.9 g
  APTT: 19.9 s
  Bas: 0%
  Eos: 0.8%
  Fbg: 284 mg/dL
  Hb: 13.9 g/dL
  Ht: 42.5%
  Lym: 76.8%
  MCH: 21.1 pg
  MCHC: 32.6%
  MCV: 64.7 fL
  Mono: 2.2%
  Neu: 19.6%
  PT: 13.4 s
  Plat: 121.9 x10_4/uL
  RBC: 657.4 x10_4/ul
  Ret: 9.3%
  WBC: 73 x10_2/uL
  KIDNEY_L: 0.9 g
  KIDNEY_R: 0.9 g
  KIDNEY_TOTAL: 1.7 g
  LIVER: 8.1 g
  A/G: 0.9
  ALP: 1351.6 IU/L
  ALT: 40.4 IU/L
  AST: 69.8 IU/L
  BUN: 7.6 mg/dL
  CRE: 0.1 mg/dL
  Ca: 10.9 mg/dL
  Cl: 104.4 meq/L
  DBIL: 0.008 mg/dL
  GLC: 186.2 mg/dL
  IP: 10.5 mg/dL
  K: 4.2 meq/L
  LDH: 70 IU/L
  Na: 140.8 meq/L
  PL: 142.8 mg/dL
  RALB: 2.5 g/dL
  TBIL: 0.062 mg/dL
  TC: 78.6 mg/dL
  TG: 34 mg/dL
  TP: 5.1 g/dL
  gamma-GTP: 1.2 IU/L
100 mg/kg, 9 h, dose level Low
  TERMINAL_BW: 190.1 g
  APTT: 18.1 s
  Bas: 0%
  Eos: 1.6%
  Fbg: 285.4 mg/dL
  Hb: 13.4 g/dL
  Ht: 41%
  Lym: 73.8%
  MCH: 20.6 pg
  MCHC: 32.7%
  MCV: 63 fL
  Mono: 2.2%
  Neu: 21.6%
  PT: 13.7 s
  Plat: 122.5 x10_4/uL
  RBC: 651.2 x10_4/ul
  Ret: 9.4%
  WBC: 68 x10_2/uL
  KIDNEY_L: 0.9 g
  KIDNEY_R: 0.9 g
  KIDNEY_TOTAL: 1.7 g
  LIVER: 7.5 g
  A/G: 0.9
  ALP: 1617.4 IU/L
  ALT: 35.8 IU/L
  AST: 65.4 IU/L
  BUN: 8.4 mg/dL
  CRE: 0.1 mg/dL
  Ca: 10.8 mg/dL
  Cl: 105 meq/L
  DBIL: 0.014 mg/dL
  GLC: 181.8 mg/dL
  IP: 10.6 mg/dL
  K: 4.5 meq/L
  LDH: 68.8 IU/L
  Na: 141 meq/L
  PL: 150.6 mg/dL
  RALB: 2.4 g/dL
  TBIL: 0.062 mg/dL
  TC: 75.4 mg/dL
  TG: 65 mg/dL
  TP: 5.2 g/dL
  gamma-GTP: 1 IU/L
[5]
  TERMINAL_BW: 208.4 g
  APTT: 20.1 s
  Bas: 0%
  Eos: 1%
  Fbg: 279 mg/dL
  Hb: 13.3 g/dL
  Ht: 40.5%
  Lym: 69%
  MCH: 20.7 pg
  MCHC: 32.8%
  MCV: 63.2 fL
  Mono: 3.2%
  Neu: 26.2%
  PT: 13.4 s
  Plat: 123.8 x10_4/uL
  RBC: 640.8 x10_4/ul
  Ret: 8.2%
  WBC: 109.3 x10_2/uL
  KIDNEY_L: 0.9 g
  KIDNEY_R: 0.9 g
  KIDNEY_TOTAL: 1.8 g
  LIVER: 9.2 g
  A/G: 0.9
  ALP: 1675 IU/L
  ALT: 41.6 IU/L
  AST: 68.2 IU/L
  BUN: 12 mg/dL
  CRE: 0.2 mg/dL
  Ca: 11.3 mg/dL
  Cl: 104.2 meq/L
  DBIL: 0.01 mg/dL
  GLC: 183.6 mg/dL
  IP: 9.4 mg/dL
  K: 4.1 meq/L
  LDH: 91 IU/L
  Na: 141.2 meq/L
  PL: 158.2 mg/dL
  RALB: 2.5 g/dL
  TBIL: 0.06 mg/dL
  TC: 82.2 mg/dL
  TG: 83.8 mg/dL
  TP: 5.4 g/dL
  gamma-GTP: 1.2 IU/L
